Measurements as given in patent US20210113501A1, “METHOD OF ADMINISTERING BETA-HYDROXY-BETA-METHYLBUTYRATE (HMB)” (Metabolic Technologies, Inc., priority 2009, published 2021).

Experiment: Study 2 blood chemistry
Assay type: in vivo, human
Details: for Aspartate Aminotransferase / Gamma-glutamyl: in U/L (unit assumed)
Description: Study 2 design. Study 2 was conducted similar to study 1 with the following modifications. In study 2, plasma levels of HMB were measured for 1440 min (24 h) and total urine collection was also performed for measurement of urinary HMB excretion during this period. After the 180 min blood sample, the subjects were allowed to leave the laboratory and were instructed to return to the laboratory for additional blood samples at 360, 720, and 1440 min after the ingestion of the supplement. As in study 1, each subject took each of the treatments with at least a one week washout period between treatments. Samples were again stored frozen at −70° C. for analysis of plasma and urinary HMB concentrations. Pre-ingestion, 180 min and 1440 min blood samples were again assayed for the same measurements already for study 1. Subjects were provided with a standardized lunch after the 180 min blood sampling and instructed to eat this at approximately 240 min post ingestion. Following the 720 min blood sample, subjects were instructed to eat a normal evening meal before 10 pm. Subjects reported back to the laboratory the following morning for the fasted 1440 min blood sample. A urine collection container was provided and subjects collected all urine produced during the experimental 24 h experimental period. The urine was stored refrigerated when not being collected. Urine volumes were measured and samples of the total urine collection were taken and stored frozen at −70° C. until analyzed for HMB.
The data were analyzed using a crossover design with Proc GLM in SAS. (45) For the timed sampling of plasma HMB a repeated measures polynomial model was used. The model included subject, order, and treatment main effects and time by treatment interaction where appropriate. For other parameters Proc GLM was also used with subject, order, and treatment main effects and the p values are reported for the treatment main effect. Statistical significance was determined for p<0.05 and a trend was determined for 0.05<p<0.10.

CC(C)(O)CC(=O)O [HMB-Acid Gel Sublingual, 3-hydroxy-3-methylbutyric acid]
A:G Ratio (After (24 h)): 1.8 ± 0.1
Alanine Aminotransferase (After (24 h)): 16.6 ± 1.8 IU/L
Albumin (After (24 h)): 4.2 ± 0.1 g/dL
Alkaline Phosphatase (After (24 h)): 62.8 ± 6.7 IU/L
Blood Urea Nitrogen (After (24 h)): 15.4 ± 1.1 mg/dL
CO2 (After (24 h)): 27.9 ± 0.4 mEq/L
Chloride (After (24 h)): 104.3 ± 0.9 mEq/L
Cholesterol Ratio (After (24 h)): 3.2 ± 0.2
Creatinine (After (24 h)): 1.0 ± 0.1 mg/dL
Direct Bilirubin (After (24 h)): 0.1 ± 0.04 mg/dL
Globulin (After (24 h)): 2.4 ± 0.1 g/dL
Glucose (After (24 h)): 80.8 ± 2.1 mg/dL
HDL (After (24 h)): 51.3 ± 2.8 mg/dL
Iron (After (24 h)): 65.0 ± 12.1 µg/dL
Iron Binding Capacity (After (24 h)): 385.0 ± 29.8 µg/dL
Iron Saturation (After (24 h)): 20.1 ± 4.2%
LDL (After (24 h)): 90.4 ± 6.8 mg/dL
Lactate Dehydrogenase (After (24 h)): 151.8 ± 5.2 IU/L
Phosphorus (After (24 h)): 4.6 ± 0.2 mg/dL
Potassium (After (24 h)): 4.9 ± 0.1 mEq/L
Protein (After (24 h)): 6.6 ± 0.2 g/dL
Sodium (After (24 h)): 142.1 ± 1.1 mEq/L
Total Bilirubin (After (24 h)): 0.5 ± 0.1 mg/dL
Total Cholesterol (After (24 h)): 163.3 ± 9.3 mg/dL
Triglycerides (After (24 h)): 107.6 ± 16.6 mg/dL
UIBC (After (24 h)): 312.0 ± 35.9 µg/dL
Uric Acid (After (24 h)): 4.7 ± 0.3 mg/dL
Aspartate Aminotransferase (After (24 h)): 24.8 ± 2.3
Gamma-glutamyl (After (24 h)): 13.9 ± 1.0
A:G Ratio (Before): 1.8 ± 0.1
Alanine Aminotransferase (Before): 15.3 ± 1.5 IU/L
Albumin (Before): 4.1 ± 0.1 g/dL
Alkaline Phosphatase (Before): 66.5 ± 7.3 IU/L
Blood Urea Nitrogen (Before): 15.3 ± 1.7 mg/dL
CO2 (Before): 25.3 ± 0.8 mEq/L
Chloride (Before): 102.1 ± 0.5 mEq/L
Cholesterol Ratio (Before): 3.1 ± 0.2
Creatinine (Before): 1.0 ± 0.1 mg/dL
Direct Bilirubin (Before): 0.1 ± 0.03 mg/dL
Globulin (Before): 2.3 ± 0.1 g/dL
Glucose (Before): 73.0 ± 1.8 mg/dL
HDL (Before): 52.3 ± 3.1 mg/dL
Iron (Before): 107.6 ± 13.7 µg/dL
Iron Binding Capacity (Before): 371.9 ± 31.4 µg/dL
Iron Saturation (Before): 30.1 ± 5.1%
LDL (Before): 91.3 ± 5.9 mg/dL
Lactate Dehydrogenase (Before): 163.8 ± 11.9 IU/L
Phosphorus (Before): 4.1 ± 0.1 mg/dL
Potassium (Before): 4.0 ± 0.1 mEq/L
Protein (Before): 6.5 ± 0.2 g/dL
Sodium (Before): 138.5 ± 0.6 mEq/L
Total Bilirubin (Before): 0.6 ± 0.1 mg/dL
Total Cholesterol (Before): 161.6 ± 9.4 mg/dL
Triglycerides (Before): 93.1 ± 10.6 mg/dL
UIBC (Before): 264.3 ± 33.3 µg/dL
Uric Acid (Before): 4.7 ± 0.3 mg/dL
A:G Ratio % Change (Before to After): −1.4%
Alanine Aminotransferase % Change (Before to After): 9.0%
Albumin % Change (Before to After): 2.7%
Alkaline Phosphatase % Change (Before to After): −5.6%
Aspartate Aminotransferase % Change (Before to After): 3.7%
Blood Urea Nitrogen % Change (Before to After): 0.8%
CO2 % Change (Before to After): 10.4%
Chloride % Change (Before to After): 2.1%
Cholesterol Ratio % Change (Before to After): 3.6%
Creatinine % Change (Before to After): 7.9%
Direct Bilirubin % Change (Before to After): −12.8%
Gamma-glutamyl % Change (Before to After): 0.0%
Globulin % Change (Before to After): 3.2%
Glucose % Change (Before to After): 10.6%
HDL % Change (Before to After): −1.9%
Iron % Change (Before to After): −39.6%
Iron Binding Capacity % Change (Before to After): 3.5%
Iron Saturation % Change (Before to After): −33.2%
LDL % Change (Before to After): −1.0%
Lactate Dehydrogenase % Change (Before to After): −7.3%
Phosphorus % Change (Before to After): 11.5%
Potassium % Change (Before to After): 21.7%
Protein % Change (Before to After): 2.9%
Sodium % Change (Before to After): 2.6%
Total Bilirubin % Change (Before to After): −13.3%
Total Cholesterol % Change (Before to After): 1.0%
Triglycerides % Change (Before to After): 15.6%
UIBC % Change (Before to After): 18.1%
Uric Acid % Change (Before to After): 0.8%
Aspartate Aminotransferase (Before): 23.9 ± 3.2
Gamma-glutamyl (Before): 13.9±1.2
